The target in test [1] is Phosphodiesterase III (PDE III). In words: Phosphodiesterase III Inhibition. The class given is biochemical, mongrel dogs (thoracic aorta). The note with it: dog thoracic aorta PDE III; substrate concentration 1 μM; triplicate. As for the experimental part:
Procedure 1 --Phosphodiesterase III Inhibition
Phosphodiesterase III (PDE III) was obtained by a slight modification of the methods of Thompson et al. [Advances in Cyclic Nucleotide Research vol. […] Thoracic aorta from mongrel dogs was minced with fine scissors and homogenized in 10 volumes of a buffer containing 10 mM tris acetate, pH 7.5, 2 mM magnesium chloride, 1mM dithiothreitol and 2000 units per mL of aprotinin. This and subsequent procedures were performed at 0-4°. The tissue was homogenized, the homogenate was sonicated and the resultant homogenate was centrifuged at 48,000 g for 30 minutes. The resulting supernatant fraction was applied to a diethylaminoethyl ether (DEAE) cellulose column that had been equilibrated with 35 or 70 mM sodium acetate containing 1 mM dithiothreitol at pH 6.5. After application of the sample, the column was washed with 2-3 bed volumes of the equilibration buffer and the PDE isozyme was eluted from the column using a continuous sodium acetate gradient to 1 molar. Fractions of approximately 5 mL were collected and assayed for cAMP and cGMP PDE activity at substrate concentrations of 1 μM. Appropriate fractions corresponding to peak three were pooled and dialyzed against 70 mM sodium acetate, 0.5 mM dithiothreitol for at least 20 hours.

The next test concerns mean arterial pressure. Briefly: In vivo Vasodilation in the Rat. The arrangement: species or system normotensive male Sprague-Dawley rats. As to conditions: 0.4 mg/kg, orally by gavage. As to the method:
Procedure 2--In vivo Vasodilation in the Rat
Normotensive male Sprague-Dawley rats of 325-425 g were anesthetized with sodium pentobarbital and an arterial catheter was placed in the abdominal aorta via the femoral artery. The catheter was tunneled subcutaneously, exteriorized at the nape of the neck, filled with heparinized saline and sealed with a stainless steel plug. The wounds were sutured and a suspension of penicillin G benzathine and penicillin G procaine was administered subcutaneously. All animals were allowed at least two days recovery prior to testing.
Rats were fasted 17 hours then placed into individual plexiglass boxes. The arterial catheter was connected to a Statham pressure transducer, positioned at the heart level, and the arterial pressure signal was recorded on a polygraph. The animals remained undisturbed for at least one hour to adapt to the testing environment. After the adaptation period, three baseline arterial pressure and heart rate measurements were taken at 15-minute intervals prior to the administration of the test drug. […] Arterial pressure and heart rate were measured at 15-minute intervals for the first hour and 30-minute intervals for the next four hours following the administration of drugs.
The data were analyzed by one-way analysis of variance for repeated measures. […]

Experimental findings from patent US5141931A, “5-Quinolinylpyridinones, cardiotonic compositions and methods” (Sterling Winthrop Inc., priority 1991, dated 1992) are described below.

A word on the IC50: it is the point on the concentration scale where inhibition reaches its midpoint. Read a high IC50 as weaker potency in that assay. With `Cc1[nH]c(=O)c(C#N)cc1-c1ccncc1` [milrinone, reference compound], the half-maximal inhibitory concentration (IC50) in test [1] was 500 nM.
On to `Cc1[nH]c(=O)c(C#N)cc1-c1ccc2ncccc2c1` [Example 3, 1,2-Dihydro-6-methyl-2-oxo-5-(6-quinolinyl)-3-pyridinecarbonitrile], for which the IC50 in test [1] amounted to 57 nM. In addition, the “area under the curve for reduction of mean arterial pressure” value in the test with mean arterial pressure (conscious normotensive rats) was determined as 75%. Also, the “statistical significance of reduction of mean arterial pressure” value in the test with mean arterial pressure (Student Newman-Keuls test, probability of less than 5%, to the end of the test at six hours) is “statistical significance at all times to the end of the test at six hours”.
